Like-named read-outs stand apart in the source and are kept apart here.
Test system: wild-type P. aeruginosa PA14
Assay: microbe, parasite or virus in culture
Assay type: cell-based
Settings: for inhibition of pyocyanin production (in words): wild-type P. aeruginosa PA14, end point assays at 100 μM; for IC50: WT P. aeruginosa PA14, 17 hr growth, titration, read-out: IC50 for inhibition of pyocyanin production; for inhibition at 100 µM: Pseudomonas aeruginosa, PA14, 17 h; for inhibition at 100 µM / Efficacy (%): reduction of pyocyanin vs WT P. aeruginosa PA14: 0% = WT level, 100% = background medium; for Efficacy (%): Table 3
Procedure: Methods. The oxidized form of pyocyanin imparts a green color to P. aeruginosa cultures, making the production of pyocyanin convenient to monitor by UV/Vis absorbance. Overnight P. aeruginosa cultures were subcultured into 5 mL fresh medium at 1:1000 dilution. Synthetic compounds were assayed at 100 μM for end point assays and at concentrations ranging from 200 nM to 200 μM for titrations following 17 hr of aerobic growth with shaking at 37° C. Cells were separated from culture fluids via centrifugation at 13,000 rpm for 15 min. Culture fluids were passed through 0.22 μm syringe driven filters (Millipore). Cell-free culture fluids were analyzed for pyocyanin using wavelength scans on a Beckman Coulter DU-800 spectrophotometer from 200 nm to 800 nm 695 nm was chosen for graphical representation. Titration data were fit with a variable-slope sigmoidal dose-response curve using GraphPad Prism to determine the IC50 values.
The compounds of the first library were assayed in wild-type (WT) P. aeruginosa PA14. Pyocyanin was used as a read-out for quorum sensing activity based on its absorbance at 695 nm. The efficacy of the compounds at reducing pyocyanin levels was calculated with respect to WT levels of pyocyanin, where WT levels of pyocyanin would lead to a 0% efficacy, and an absorbance equal to the background medium would lead to a 100% efficacy. Agonists that increase pyocyanin production have negative efficacy values.

[1] = read-out: Efficacy (%), Table 1, negative = agonist
[2] = read-out: Efficacy (%), Table 2, negative = agonist
[3] = read-out: Efficacy (%), Table 3

## O=C(CCCCOc1cccc(Br)c1)NC1CCSC1=O (stereo not shown) [5C-mBTL]
  inhibition of pyocyanin production (in words): most effective inhibitor of pyocyanin production

## O=C(CCCOc1cccc(Br)c1)N[C@@H]1CCSC1=O [(R)-mBTL]
  IC50: 100 µM

## O=C(CCCOc1cccc(Br)c1)N[C@H]1CCSC1=O [(S)-mBTL]
  IC50: 4 µM

## O=C(CCc1ccc(Br)cc1)N[C@H]1CCOC1=O [B7, reference compound]
  inhibition of pyocyanin production (in words): limited or no inhibition

## CCCCCCCCCC(=O)CC(=O)Nc1ccccn1 [S1, 3OC12-2-aminopyridine]
[1]
  inhibition at 100 µM: 44 ± 13%

## CCCCCCCCCC(=O)CC(=O)Nc1cccnc1 [S2, 3OC12-3-aminopyridine]
[1]
  inhibition at 100 µM: 10 ± 9%

## CCCCCCCCCC(=O)CC(=O)Nc1ccncn1 [S3, 3OC12-4-aminopyrimidine]
[1]
  inhibition at 100 µM: 64 ± 0.8%

## CCCCCCCCCC(=O)CC(=O)Nc1cnccn1 [S4, 3OC12-2-aminopyrazine]
[1]
  inhibition at 100 µM: 21 ± 13%

## CCCCCCCCCC(=O)CC(=O)Nc1ncccn1 [S5, 3OC12-2-aminopyrimidine]
[1]
  inhibition at 100 µM: -0.51 ± 4%

## CCCCCCCCCCCC(=O)Nc1ccccn1 [S6, C12-2-aminopyridine]
[1]
  inhibition at 100 µM: 55 ± 3%

## CCCCCCCCCCCC(=O)Nc1cccnc1 [S7, C12-3-aminopyridine]
[1]
  inhibition at 100 µM: 34 ± 3%

## CCCCCCCCCCCC(=O)Nc1ccncc1 [S8, C12-4-aminopyridine]
[1]
  inhibition at 100 µM: 28 ± 11%

## CCCCCCCCCCCC(=O)Nc1ccncn1 [S9, C12-4-aminopyrimidine]
[1]
  inhibition at 100 µM: 55 ± 8%

## CCCCCCCCCCCC(=O)Nc1cnccn1 [S10, C12-2-aminopyrazine]
[1]
  inhibition at 100 µM: -38 ± 3%

## CCCCCCCCCCCC(=O)Nc1ncccn1 [S11, C12-2-aminopyrimidine]
[1]
  inhibition at 100 µM: 23 ± 3%

## CCCCCCCCCCCC(=O)Nc1ccnc(C)c1 [S12, C12-4-amino-2-methylpyridine]
[2]
  inhibition at 100 µM: -19 ± 3%

## CCCCCCCCCCCC(=O)Nc1cc(C)nc2ccccc12 [S13, C12-4-amino-2-methylquinoline]
[2]
  inhibition at 100 µM: -24 ± 2%

## CCCCCCCCCCCC(=O)Nc1ccncc1C(F)(F)F [S14, C12-4-amino-3-trifluoromethylpyridine]
[2]
  inhibition at 100 µM: -17 ± 2%

## CCCCCCCCCCCC(=O)Nc1ccnc(OC)c1 [S15, C12-4-amino-2-methoxypyridine]
[2]
  inhibition at 100 µM: -5.1 ± 1%

## CCCCCCCCCC(=O)CC(=O)Nc1ccnc(OC)c1 [S16, 3OC12-4-amino-2-methoxypyridine]
[2]
  inhibition at 100 µM: 24 ± 1%

## CCCCCCCCCCCC(=O)Nc1ccnc(Br)c1 [S17, C12-4-amino-2-bromopyridine]
[2]
  inhibition at 100 µM: 34 ± 5%

## CCCCCCCCCC(=O)CC(=O)Nc1ccnc(F)c1 [S18, 3OC12-4-amino-2-fluoropyridine]
[2]
  inhibition at 100 µM: -8.5 ± 3%

## CCCCCCCCCCCC(=O)Nc1c(F)c(F)nc(F)c1F [S19, C12-4-amino-2,3,5,6-tetrafluoropyridine]
[2]
  inhibition at 100 µM: -12 ± 3%

## CCCCCCCCCCCC(=O)Nc1ccnc(C(F)(F)F)c1 [S20, C12-4-amino-2-trifluoromethylpyridine]
[2]
  inhibition at 100 µM: 27 ± 3%

## CCCCCCCCCCCCNC(=O)c1ccncc1 [S21, C12-isonicotinic amide]
[2]
  inhibition at 100 µM: 13 ± 3%

## CCCCCCCCCCCC(=O)NCc1ccncc1 [S22, C12-4-(aminomethyl)pyridine]
[2]
  inhibition at 100 µM: 7.7 ± 5%

## CCCCCCCCCCCC(=O)OCc1ccncc1 [S23, C12-4-(hydroxymethyl)pyridine]
[2]
  inhibition at 100 µM: -15 ± 4%

## CCCCCCCCCCCC(=O)N1CCN(c2ccncc2)CC1 [S24, C12-4-(piperazine)pyridine]
[2]
  inhibition at 100 µM: -42 ± 2%

## CCCCCCCCCCCC(=O)Nc1ccc2[nH]ccc2c1 [S25, C12-5-aminoindole]
[2]
  inhibition at 100 µM: -11 ± 3%

## CCCCCCOC(=O)C1COc2ccccc21 (stereo not shown) [S28, C6-dihydrobenzofuran ester]
[2]
  inhibition at 100 µM: 1.5 ± 8%

## CCCCCCCCCCCC(=O)O/N=C1\COc2ccccc21 [S29, C12-dihydrobenzofuran acylhydroxylamine]
[2]
  inhibition at 100 µM: 12 ± 3%

## CCCCCCCCCCCC(=O)Nc1ccc2c(c1)c1ccccc1n2CC [S30, C12-3-amino-1-ethylcarbazole]
[2]
  inhibition at 100 µM: -1 ± 3%

## CCCCCCCCCC(=O)CC(=O)Nc1ccc2c(c1)c1ccccc1n2CC [S31, 3OC12-3-amino-1-ethylcarbazole]
[2]
  inhibition at 100 µM: 9.3 ± 4%

## CCCCCCCCCCCCNC(=O)c1cc2ccccc2n1C [S32, C12-2-amido-1-methylindole]
[2]
  inhibition at 100 µM: -9.2 ± 4%

## CCCCCCCCCCCCNC(=O)c1c[nH]c2ccccc12 [S33, C12-3-amidoindole]
[2]
  inhibition at 100 µM: 4.4 ± 3%

## CCCCCCCCCCCCNC(=O)Cc1c[nH]c2ccccc12 [S34, C12-3-(methylamido)indole]
[2]
  inhibition at 100 µM: 0.6 ± 4%

## CCCCCCCCCCCC(=O)Nc1ccc2oc3c(c2c1)CCCC3 [S35, C12-2-amino-tetrahydrodibenzofuran]
[2]
  inhibition at 100 µM: 6.1 ± 4%

## O=C(COc1cccc(Br)c1)Nc1ccncc1 [S37, 4-aminopyridine-C4-3-bromophenoxyhybrid]
Listed as drawing 59
  Efficacy (%): 21 ± 5%

## O=C(COc1cccc(Br)c1)Nc1ccncc1 [S39, 4-aminopyridine-C6-3-bromophenoxyhybrid]
Listed as drawing 60
  Efficacy (%): 53 ± 1%

## O=C(COc1cccc(Br)c1)Nc1ccnc(F)c1 [S40, 4-amino-2-fluoropyridine-C4-3-bromophenoxyhybrid]
  Efficacy (%): 32 ± 4%

## O=C(COc1cccc(Br)c1)Nc1ccnc(F)c1 [S41, 4-amino-2-fluoropyridine-C6-3-bromophenoxyhybrid]
[3]
  inhibition at 100 µM: 31 ± 6%

## COc1cc(NC(=O)COc2cccc(Br)c2)ccn1 [S42, 4-amino-2-methoxypyridine-C4-3-bromophenoxyhybrid]
Listed as drawing 63
  Efficacy (%): 20 ± 1%

## COc1cc(NC(=O)COc2cccc(Br)c2)ccn1 [S44, 4-amino-2-methoxypyridine-C5-3-bromophenoxyhybrid]
Listed as Table 3 entry 6
  Efficacy (%): 81%
Listed as drawing 64
  Efficacy (%): 81 ± 6%

## COc1cc(NC(=O)CC(=O)COc2cccc(Br)c2)ccn1 [S46, 4-amino-2-methoxypyridine-3OC6-3-bromophenoxyhybrid]
[3]
  inhibition at 100 µM: 40%
  Efficacy (%): 40 ± 6%

## COc1cc(NC(=O)COc2cccc(Br)c2)ccn1 [S50, 4-amino-2-methoxypyridine-C8-3-bromophenoxyhybrid]
Listed as Table 3 entry 10
  Efficacy (%): 60%
Listed as drawing 68
  Efficacy (%): 60 ± 2%

## O=C(COc1cccc(Br)c1)Nc1ccncn1 [S51, 4-aminopyrimidine-C6-3-bromophenoxyhybrid]
[3]
  inhibition at 100 µM: 27 ± 7%

## COc1cc(NC(=O)COc2cccc(Br)c2)ncn1 [S52, 4-amino-6-methoxypyrimidine-C6-3-bromophenoxyhybrid]
[3]
  inhibition at 100 µM: 41%
  Efficacy (%): 41 ± 9%

## COc1nccc(NC(=O)COc2cccc(Br)c2)n1 [S53, 4-amino-2-methoxypyrimidine-C6-3-bromophenoxyhybrid]
[3]
  inhibition at 100 µM: 16 ± 5%

## COc1cc(NC(=O)COc2cccc(Br)c2)nc(OC)n1 [S54, 4-amino-2,6-dimethoxypyrimidine-C6-3-bromophenoxyhybrid]
[3]
  inhibition at 100 µM: 15 ± 7%

## O=C(COc1cccc(Br)c1)Nc1ccnc(Cl)c1 [S55, 4-amino-2-chloropyridine-C6-3-bromophenoxyhybrid]
[3]
  inhibition at 100 µM: 89%
  Efficacy (%): 89 ± 5%

## O=C(COc1cccc(Br)c1)Nc1ccnc(C(F)(F)F)c1 [S56, 4-amino-2-trifluoromethylpyridine-C4-3-bromophenoxyhybrid]
Listed as drawing 74
  Efficacy (%): 43 ± 8%

## O=C(COc1cccc(Br)c1)Nc1ccnc(C(F)(F)F)c1 [S57, 4-amino-2-trifluoromethylpyridine-C5-3-bromophenoxyhybrid]
Listed as Table 3 entry 17
  Efficacy (%): 95%
Listed as drawing 75
  Efficacy (%): 95 ± 5%

## O=C(COc1cccc(Br)c1)Nc1ccnc(C(F)(F)F)c1 [S58, 4-amino-2-trifluoromethylpyridine-C7-3-bromophenoxyhybrid]
Listed as drawing 77
  Efficacy (%): 23 ± 7%

## O=C(COc1cccc(Br)c1)Nc1cccc(C(F)(F)F)c1 [S59, 1-amino-3-trifluoromethyl-C6-3-bromophenoxyhybrid]
[3]
  inhibition at 100 µM: 62%
  Efficacy (%): 62 ± 6%
